B1: rat brain COMT (Rattus norvegicus) (protein)
chain: MPLAAVSLGLLLLALLLLLRHLGWGLVTIFWFEYVLQPVHNLIMGDTKEQRILRYVQQNAKPGDPQSVLEAIDTYCTQKEWAMNVGDAKGQIMDAVIREYSPSLVLELGAYCGYSAVRMARLLQPGARLLTMEMNPDYAAITQQMLNFAGLQDKVTILNGASQDLIPQLKKKYDVDTLDMVFLDHWKDRYLPDTLLLEKCGLLRKGTVLLADNVIVPGTPDFLAYVRGSSSFECTHYSSYLEYMKVVDGLEKAIYQGPSSPDKS
B2: rat liver COMT (Rattus norvegicus) (protein)
chain: MGDTKEQRILRYVQQNAKPGDPQSVLEAIDTYCTQKEWAMNVGDAKGQIMDAVIREYSPSLVLELGAYCGYSAVRMARLLQPGARLLTMEMNPDYAAITQQMLNFAGLQDKVTILNGASQDLIPQLKKKYDVDTLDMVFLDHWKDRYLPDTLLLEKCGLLRKGTVLLADNVIVPGTPDFLAYVRGSSSFECTHYSSYLEYMKVVDGLEKAIYQGPSSPDKS

Experiments:
[1] = molecular target: T1, liver COMT (Rattus norvegicus, UniProt P22734); assay: Liver COMT activity in homogenates after administration of test compounds by gastric tube; assay type: in vivo; conditions: for % inhibition of COMT activity, liver, 0.5 h / % inhibition of COMT activity, liver, 1 h / % inhibition of COMT activity, liver, 3 h / % inhibition of COMT activity, liver, 6 h / % inhibition of COMT activity, liver, 9 h: rat liver homogenate, mean ± S.E.M., n=4; for % inhibition of COMT activity, liver, 0.5 h: 0.5 h after administration by gastric tube; for % inhibition of COMT activity, liver, 1 h: 1 h after administration by gastric tube; for % inhibition of COMT activity, liver, 3 h: 3 h after administration by gastric tube; for % inhibition of COMT activity, liver, 6 h: 6 h after administration by gastric tube; for % inhibition of COMT activity, liver, 9 h: 9 h after administration by gastric tube
T1 construct: Aliquots of 0.5 ml of liver and whole brain homogenates were preincubated; from tissue; host or cells: liver homogenate of male Wistar rats
T1 sequence (P22734 44-264 limits assumed): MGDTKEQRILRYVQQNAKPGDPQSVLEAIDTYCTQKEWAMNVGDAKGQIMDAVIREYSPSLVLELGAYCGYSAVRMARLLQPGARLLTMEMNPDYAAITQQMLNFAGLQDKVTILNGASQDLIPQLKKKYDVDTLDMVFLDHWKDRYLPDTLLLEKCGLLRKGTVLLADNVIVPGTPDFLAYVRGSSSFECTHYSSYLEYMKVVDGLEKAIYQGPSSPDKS

[2] = molecular target: T2, brain COMT (Rattus norvegicus, UniProt P22734); assay: Brain COMT activity in homogenates after administration of test compounds by gastric tube; assay type: in vivo; conditions: for % inhibition of COMT activity, brain, 0.5 h / % inhibition of COMT activity, brain, 1 h / % inhibition of COMT activity, brain, 3 h / % inhibition of COMT activity, brain, 6 h / % inhibition of COMT activity, brain, 9 h: rat brain homogenate, mean ± S.E.M., n=4; for % inhibition of COMT activity, brain, 0.5 h: 0.5 h after administration by gastric tube; for % inhibition of COMT activity, brain, 1 h: 1 h after administration by gastric tube; for % inhibition of COMT activity, brain, 3 h: 3 h after administration by gastric tube; for % inhibition of COMT activity, brain, 6 h: 6 h after administration by gastric tube; for % inhibition of COMT activity, brain, 9 h: 9 h after administration by gastric tube
T2 construct: Aliquots of 0.5 ml of liver and whole brain homogenates were preincubated; from tissue; host or cells: whole brain homogenate of male Wistar rats
T2 sequence (P22734 1-264): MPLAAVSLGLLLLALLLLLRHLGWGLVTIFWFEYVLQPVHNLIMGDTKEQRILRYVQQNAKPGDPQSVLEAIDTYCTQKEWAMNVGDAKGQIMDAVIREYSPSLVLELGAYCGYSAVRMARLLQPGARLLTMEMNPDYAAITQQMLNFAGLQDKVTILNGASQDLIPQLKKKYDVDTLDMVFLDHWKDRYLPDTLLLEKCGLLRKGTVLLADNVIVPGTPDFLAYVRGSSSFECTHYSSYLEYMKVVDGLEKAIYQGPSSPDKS

[3] = molecular target: T3, rat brain COMT (Rattus norvegicus, UniProt P22734); assay: In vitro COMT inhibition, rat brain homogenate (methylation of adrenaline to metanephrine); assay type: biochemical
T3 construct: Aliquots of 0.5 ml of liver and whole brain homogenates were preincubated; from tissue; host or cells: whole brain homogenate of male Wistar rats
T3 sequence (P22734 1-264): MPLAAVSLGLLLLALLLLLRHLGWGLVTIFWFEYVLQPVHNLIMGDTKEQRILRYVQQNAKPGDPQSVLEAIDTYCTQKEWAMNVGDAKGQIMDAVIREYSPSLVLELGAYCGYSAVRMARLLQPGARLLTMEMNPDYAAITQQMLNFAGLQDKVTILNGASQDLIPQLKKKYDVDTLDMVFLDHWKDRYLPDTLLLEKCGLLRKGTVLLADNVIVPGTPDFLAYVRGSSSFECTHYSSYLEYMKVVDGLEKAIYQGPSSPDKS

[4] = molecular target: T4, rat liver COMT (Rattus norvegicus, UniProt P22734); assay: In vitro COMT inhibition, rat liver homogenate (methylation of adrenaline to metanephrine); assay type: biochemical
T4 construct: Aliquots of 0.5 ml of liver and whole brain homogenates were preincubated; from tissue; host or cells: liver homogenate of male Wistar rats
T4 sequence (P22734 44-264 limits assumed): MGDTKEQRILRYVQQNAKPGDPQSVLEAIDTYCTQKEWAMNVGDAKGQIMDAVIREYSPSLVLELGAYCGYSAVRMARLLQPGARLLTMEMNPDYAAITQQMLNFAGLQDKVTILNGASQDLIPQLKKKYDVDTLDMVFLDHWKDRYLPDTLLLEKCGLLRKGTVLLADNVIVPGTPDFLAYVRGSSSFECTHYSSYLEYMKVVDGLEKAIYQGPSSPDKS

[5] = test system: rats; assay: Behavioural testing: potentiation of amphetamine-induced hyperactivity (locomotor activity, stereotypies); assay type: in vivo, rat; conditions: for pattern of locomotor activity and stereotyped behaviour versus corresponding controls: given p.o. six hours before amphetamine challenge (0.5, 2.0, 4.0 mg/kg s.c.)
[6] = literature values (Dingemanse 1995; Keranen 1994); cited from earlier work
[7] = substrate: CNCC(O)c1ccc(O)c(O)c1; assay: cells, lysate or membranes named; conditions: saturation experiments, 95% confidence intervals, pH 7.8
[8] = COMT inhibitor 30 mg/kg p.o. 6 h before amphetamine challenge (s.c.)

Molecule	% inhibition of COMT activity, liver, 0.5 h [1]	% inhibition of COMT activity, liver, 1 h [1]	% inhibition of COMT activity, liver, 3 h [1]	% inhibition of COMT activity, liver, 6 h [1]	% inhibition of COMT activity, liver, 9 h [1]	% inhibition of COMT activity, brain, 0.5 h [2]	% inhibition of COMT activity, brain, 1 h [2]	% inhibition of COMT activity, brain, 3 h [2]	% inhibition of COMT activity, brain, 6 h [2]	% inhibition of COMT activity, brain, 9 h [2]	IC50 [3]	IC50 [4]	further results
O=C(CCCc1ccccc1)c1cc(O)c(O)c([N+](=O)[O-])c1 [D]	97.5 ± 0.1%	95.3 ± 0.8%	67.5 ± 7.8%	52.0 ± 9.5%	39.0 ± 13.2%	85.1 ± 1.7%	69.3 ± 5.1%	33.5 ± 4.4%	26.7 ± 4.0%	12.2 ± 5.8%	2.9 nM	1850 nM	
CC(N)Cc1ccccc1 (centres unmarked) [amphetamine]													duration of stereotypies during the 600 s observation period ([5]; amphetamine 4.0 mg/kg s.c. alone): 250 s; horizontal activity and rearing ([5]; amphetamine 0.5 and 2.0 mg/kg s.c. alone): dose-dependent increases
CNCC(O)c1ccc(O)c(O)c1 (centres unmarked) [adrenaline, reference compound]													Vmax of adrenaline O-methylation, brain ([3]; whole brain homogenate, saturation experiments): 1.35±0.02 nmol mg protein^−1 h^−‘; Vmax of adrenaline O-methylation, liver ([4]; liver homogenate, saturation experiments): 61.6±3.8 nmol mg protein^−1 h^−‘
Cc1ccc(C(=O)c2cc(O)c(O)c([N+](=O)[O-])c2)cc1 [Tolcapone, 3,4-dihydroxy4′-methyl-5-nitrobenzophenone, reference compound]	100.0 ± 0.0%	99.9 ± 0.1%	98.0 ± 0.7%	94.1 ± 0.3%	67.0 ± 4.0%	98.9 ± 0.1%	98.7 ± 0.2%	97.0 ± 0.5%	85.8 ± 8.2%	77.5 ± 1.8%			ED50 ([1]; rat, po, read-out: ED50 for inhibiting liver COMT): 0.7 ± 0.1 mg/kg; inhibition in brain and liver COMT at 6 h and 9 h after administration ([2]; rat, oral, 6 h and 9 h, brain and liver): marked inhibition; ED50 ([2]; rat, po, read-out: ED50 for inhibiting brain COMT): 1.6 ± 0.1 mg/kg; duration of stereotyped behavior in rats given 4.0 mg/kg amphetamine [5, 8]: increased two-fold; locomotor activity in rats given 4.0 mg/kg amphetamine [5, 8]: marked decrease in locomotor activity; locomotor activity in rats treated with 0.5 and 2.0 mg/kg amphetamine [5, 8]: significantly increase locomotor activity; half-life [6]: 2 h
O=C(CCc1ccccc1)c1cc(O)c(O)c([N+](=O)[O-])c1 [C]	98.4 ± 0.3%	97.8 ± 0.2%	95.0 ± 0.7%	70.8 ± 12.8%	39.9 ± 11.1%	89.9 ± 0.7%	86.2 ± 0.5%	59.8 ± 5.8%	33.4 ± 7.0%	0.4 ± 5.3%	3.1 nM	829 nM	
O=C(c1ccccc1)c1cc(O)c(O)c([N+](=O)[O-])c1 [Compound A, 3,4-dihydroxy-5-nitrobenzophenone]	99.0 ± 0.2%	98.7 ± 0.2%	96.9 ± 2.5%	80.5 ± 7.3%	31.7 ± 5.5%	96.3 ± 0.4%	96.8 ± 0.3%	97.0 ± 0.3%	85.8 ± 7.5%	34.9 ± 6.0%	7.1 nM	935 nM	
O=C(Cc1ccccc1)c1cc(O)c(O)c([N+](=O)[O-])c1 [Compound B, 1-(3,4-Dihydroxy-5-nitrophenyl)-2-phenyl-1-ethanone]													pattern of locomotor activity and stereotyped behaviour versus corresponding controls [5]: same pattern of locomotor activity and stereotyped behaviour as their corresponding controls
O=C(CCCCc1ccccc1)c1cc(O)c(O)c([N+](=O)[O-])c1 [E]	99.2 ± 0.1%	98.9 ± 0.3%	88.1 ± 3.9%	36.0 ± 6.3%	−4.0 ± 8.0%	87.4 ± 1.3%	74.2 ± 4.2%	25.0 ± 3.1%	−5.6 ± 7.5%	−6.7 ± 5.0%	6.7 nM	1280 nM	inhibitory profile on brain versus liver COMT after oral administration ([1]; rat, comparison of brain and liver COMT inhibition (Table 2)): much more potent upon liver COMT than brain COMT
CCN(CC)C(=O)/C(C#N)=C/c1cc(O)c(O)c([N+](=O)[O-])c1 [Entacapone, (E)-2-cyano-N,N-diethyl-3-(3,4-dihydroxy-5-nitrophenyl)acrylamide]													pattern of locomotor activity and stereotyped behaviour versus corresponding controls [5]: same pattern of locomotor activity and stereotyped behaviour as their corresponding controls
B1													Km ([7]; other: whole brain homogenate): 0.7 µM
B2													Km ([7]; other: liver homogenate): 238.5 (128.5; 348.5) μM

Reference: patent US6512136B1, “Substituted 2-phenyl-1-(3,4-dihydroxy-5-nitrophenyl)-1-ethanones, their use in the treatment of some central and peripheral nervous system disorders and pharmaceutical compositions containing them” (Portela & C.A., S.A., priority 1998, dated 2003)
